Results taken from patent US8709804B2, “Method for drug screening and characterization by calcium flux” (Cedars-Sinai Medical Center, priority 2004, dated 2014).

How the values were obtained:
[1] = system: AtT-20 cells; experiment: Dose response of spontaneous calcium oscillations by confocal Calcium Green imaging of single cells; format: cell-based, mouse
Method: Sigmoidal dose response curves were fit to each individual cell and the average response over the total population was calculated.
The treated cell samples were imaged using asymmetric imaging methods and a temporal resolution of 3 fps for up to 45 minutes total recording time. In particular, illumination (excitation) was diffraction limited while the detection (emission) was almost wide-field by opening the confocal detection pinhole but leaving the excitation pinhole closed. This allowed for increased detection efficiency, while still suppressing background fluorescence. […]
The Attofluor cell culture chamber was placed inside a PenCon temperature controlled incubator at 37° C. mounted on a DMIRB/E inverted microscope (obtained from Leica Microsystems; Wetzlar, Germany). […] The digital temperature readout of the incubator was checked with a calibrated mercury thermometer to confirm the values within 0.2° C. […]

[2] = system: AtT-20 cells; experiment: Cell viability control after 45 minutes of imaging and nimodipine: calcium response to high K+ depolarization; format: cell-based, mouse; conditions: 45 minutes of imaging and nimodipine treatment up to maximum dose, FIG. 4B
Method: Cells were stained with Calcium Green, imaged and exposed to increasing drug doses for 45 minutes. […] First, untreated AtT-20 cells were imaged over a forty-five (45) minute time span with continuous recording at 3 fps. The amplitude of calcium oscillations was measured and plotted over time. […] The averaged oscillation amplitudes of an untreated cell sample over a fifty (50) minute interval for all cells is shown in FIG. 3B. […] As such, experiments were not recorded longer than 45 minutes.

COCCOC(=O)C1=C(C)NC(C)=C(C(=O)OC(C)C)C1c1cccc([N+](=O)[O-])c1 (stereo not drawn) [nimodipine, 1,4-Dihydro-2,6-dimethyl-4-(3-nitrophenyl)-3,5-pyridinedicarboxylic acid 2-methyloxyethyl 1-methylethyl ester]
IC50 ([1]; Mus musculus, AtT20, 5 min, average over all individual cells, FIG. 5B, 5 minute interval per dose, read-out: IC50 of the averaged dose response of calcium oscillation amplitude): 23 nM
Concentration giving complete inhibition of baseline spontaneous calcium oscillations (BSCOs) ([1]; representative cell, FIG. 4C, concentration increased in 10-fold increments): 100 nM
Toxicity of prolonged exposure to cells [2]: non-toxic
